{"source": "paper PMC8113213", "about": "“Physiologically based kinetic modelling based prediction of in vivo rat and human acetylcholinesterase (AChE) inhibition upon exposure to diazinon” (Archives of Toxicology, 2021)", "key": {"natural human RBC AChE": {"tested_on": "natural human RBC AChE", "settings": "ref Fakhri-Bafghi et al. 2016; cited from earlier work"}, "CYP450": {"tested_on": "CYP450", "settings": "ref Kappers et al. 2001; cited from earlier work"}, "RBC AChE [1]": {"tested_on": "RBC AChE", "test": "TEF-coded PBK model-based reverse dosimetry, predicted in vivo RBC AChE inhibition, rat", "settings": "for Predicted BMDL10 for rat pups: adult rat predicted BMDL10 corrected by factor 2 (Padilla et al. 2004)", "from_the_text": "The PBK model for DZN was developed based on the model from Poet et al. ([2004]) with some modifications for both rat and human. The model contains a submodel for the metabolite DZO and was defined to include compartments for rapidly perfused tissue, slowly perfused tissue, liver, fat and blood for both the parent compound DZN and its metabolite DZO. The model also contains a compartment to describe the urinary elimination of the metabolites IMHP and DAP (sum of DEP and DETP). In the currently developed model, oral exposure was included since we aimed at defining a POD for risk assessment of exposure via food and drinking water, and intravenous (IV) exposure was included for model evaluation. The fractional absorption (fa) was set equal to literature reported values, being 0.8 in rat (Poet et al. [2004]) and 0.66 in human (Garfitt et al. [2002]) and applied to the overall dose. The absorption of DZN from the stomach into the liver was described using a two-compartment gastrointestinal tract model as reported by Poet et al. ([2004]), with a first-order rate constant for absorption of DZN from the stomach into the liver (KaS) of 0.1 /h for rat and 0.32/h for human (Poet et al. [2004]), a first-order rate constant for transfer of DZN from the stomach into the intestine (KsI) of 0.48/h for both rat and human, a first-order rate constant for absorption DZN from the intestine into the liver (KaI) of 0.59/h for both rat and human, (Poet et al. [2004]), and Ke values for the elimination of IMHP or DAP (sum of DEP and DETP) into the urine amounting to Ke IMHP = 0.29/h, Ke DEP = 0.29 /h and Ke DETP = 0.29/h for rat (Poet et al. [2004]), and Ke IMHP = 12/h, Ke DEP = 12 /h and Ke DETP = 12/h for human (Garfitt et al. [2002]; Poet et al. [2004]).\nThe physiological parameters for rat and human were obtained from Brown et al. ([1997]) as well as Gearhart et al. ([1990]), and are summarised in Table 1. […] The kinetic parameters for biotransformation of DZN in rat and human were obtained by conducting in vitro liver microsomal/plasma incubations as described in the section “In vitro metabolic incubations for deriving kinetic parameters”. […] The first-pass metabolism of DZN by the intestine was not taken into account in the current model because the metabolic conversion in the intestine derived from the conversion in incubations with intestinal microsomes upon scaling to the whole organ, appeared less than 5% of that obtained in a similar way for the liver (data not shown). […] The Km values determined in vitro were assumed to be equal to in vivo Km values. […]"}, "RBC AChE [2]": {"tested_on": "RBC AChE", "test": "TEF-coded PBK model-based reverse dosimetry, predicted in vivo RBC AChE inhibition, human", "from_the_text": "The PBK model for DZN was developed based on the model from Poet et al. ([2004]) with some modifications for both rat and human. The model contains a submodel for the metabolite DZO and was defined to include compartments for rapidly perfused tissue, slowly perfused tissue, liver, fat and blood for both the parent compound DZN and its metabolite DZO. The model also contains a compartment to describe the urinary elimination of the metabolites IMHP and DAP (sum of DEP and DETP). In the currently developed model, oral exposure was included since we aimed at defining a POD for risk assessment of exposure via food and drinking water, and intravenous (IV) exposure was included for model evaluation. The fractional absorption (fa) was set equal to literature reported values, being 0.8 in rat (Poet et al. [2004]) and 0.66 in human (Garfitt et al. [2002]) and applied to the overall dose. […]\nThe physiological parameters for rat and human were obtained from Brown et al. ([1997]) as well as Gearhart et al. ([1990]), and are summarised in Table 1. […] The Km values determined in vitro were assumed to be equal to in vivo Km values. […]"}, "RBC AChE [3]": {"tested_on": "RBC AChE", "settings": "ref USEPA 2016, cited from earlier work; for Reported BMDL10 from EPA (pups): RBC AChE inhibition in female rat pups (PND11)"}, "[4]": {"settings": "rat, ref Poet et al. 2004, cited from earlier work"}}, "note": "Read-outs that look alike come from different tables or passages of the source. Marks after values point to notes of the source that are not given here.", "data": [{"smiles": "CCOP(=S)(OCC)Oc1cc(C)nc(C(C)C)n1", "note": "[DZN, O,O-diethyl O-2-isopropyl-6-methylpyrimidin-4-yl phosphorothioate]", "values": [{"measurement": "IC50", "setting": "natural human RBC AChE", "value": 24.4, "unit": "µM"}, {"measurement": "difference in DZO formation from DZN between 15 human liver samples", "setting": "CYP450", "value": "6- to 59 fold"}, {"measurement": "corrected POD (rat pups) higher than POD used by the EPA", "setting": "RBC AChE [1]", "value": 2.1, "unit": "fold"}, {"measurement": "predicted rat BMDL10 higher than reported BMDL10 for inhibition of RBC AChE", "setting": "RBC AChE [1]", "value": 2.6, "unit": "fold"}, {"measurement": "Predicted BMDL10 for rat pups", "setting": "RBC AChE [1]", "value": 6.3, "unit": "mg/kg bw"}, {"measurement": "Predicted BMDL10 for rat pups", "setting": "RBC AChE [1]; listed as Diazinon", "value": "6.3^a mg/kg bw"}, {"measurement": "predicted BMDL10 for human lower than that for rat", "setting": "RBC AChE [2]", "value": 6, "unit": "fold"}, {"measurement": "Reported BMDL10 from EPA (pups)", "setting": "RBC AChE [3]", "value": 3, "unit": "mg/kg bw"}, {"measurement": "Reported BMDL10 from EPA (pups)", "setting": "RBC AChE [3]; listed as Diazinon", "value": 3.0, "unit": "mg/kg bw"}, {"measurement": "BMDL10 for inhibition of RBC AChE", "setting": "RBC AChE [3]; male adult rats, oral DZN", "value": 4.804, "unit": "mg/kg bw/day"}, {"measurement": "Reported BMDL10 from EPA (adult rat)", "setting": "RBC AChE [3]", "value": 4.8, "unit": "mg/kg bw"}, {"measurement": "fractional absorption (fa)", "setting": "[4]; oral", "value": 0.8}, {"measurement": "first-order rate constant for absorption from the intestine into the liver (KaI)", "setting": "[4]", "value": 0.59, "unit": "h⁻¹"}, {"measurement": "first-order rate constant for absorption from the stomach into the liver (KaS)", "setting": "[4]", "value": 0.1, "unit": "h⁻¹"}, {"measurement": "first-order rate constant for transfer from the stomach into the intestine (KsI)", "setting": "[4]", "value": 0.48, "unit": "h⁻¹"}]}]}
